The source made the active and inactive calls. The calls are words filed in the database; no cut-off is given here.
Experiments:
[1] = target: T1, [Pyruvate dehydrogenase (acetyl-transferring)] kinase isozyme 1, mitochondrial (Homo sapiens, UniProt Q15118); assay: Inhibition of full length His6-tagged PDK1 (unknown origin) expressed in Escherichia coli using full length His6-tagged PDHA1 as substrate after 30 mins by ELISA
[2] = target: T1, [Pyruvate dehydrogenase (acetyl-transferring)] kinase isozyme 1, mitochondrial; assay: Inhibition of PDK1 in human A549 cells assessed as reduction in phosphorylation of PDHE1 at S293 residue at 10 uM after 24 hrs by chemiluminescence/femtochemiluminescence method; format: cell-based
[3] = target: T1, [Pyruvate dehydrogenase (acetyl-transferring)] kinase isozyme 1, mitochondrial; assay: Inhibition of PDK1 in human A549 cells assessed as reduction in phosphorylation of PDHE1 at S293 residue at 1 uM after 24 hrs by chemiluminescence/femtochemiluminescence method; format: cell-based
[4] = target: T1, [Pyruvate dehydrogenase (acetyl-transferring)] kinase isozyme 1, mitochondrial; assay: Inhibition of PDK1 in human A549 cells assessed as reduction in phosphorylation of PDHE1 at S232 residue at 1 uM after 24 hrs by chemiluminescence/femtochemiluminescence method; format: cell-based
[5] = target: T1, [Pyruvate dehydrogenase (acetyl-transferring)] kinase isozyme 1, mitochondrial; assay: Inhibition of PDK1 in human A549 cells assessed as reduction in phosphorylation of PDHE1 at S232 residue at 10 uM after 24 hrs by chemiluminescence/femtochemiluminescence method; format: cell-based
[6] = Antiproliferative activity against human GM00637 cells after 72 hrs by CCK8 assay; format: cell-based; settings: GM00637, 72 h
L02 = assay: Antiproliferative activity against human LO2 cells after 72 hrs by CCK8 assay; format: cell-based; settings: L02, 72 h
A549 [7] = assay: Antitumor activity against human A549 cells xenografted in BALB/c nude mouse assessed as reduction in tumor weight at 40 to 80 mg/kg, ip for 21 days measured on day 21 post dose; format: functional, organism-based
A549 [8] = assay: Antitumor activity against human A549 cells xenografted in BALB/c nude mouse assessed as tumor growth inhibition at 40 mg/kg, ip for 21 days measured on day 21 post dose relative to control; format: functional; settings: 504 h, read-out: TGI
[9] = target: [Pyruvate dehydrogenase (acetyl-transferring)] kinase isozyme 2, mitochondrial (Homo sapiens, UniProt Q15119); assay: Inhibition of PDK2 (unknown origin) using full length His6-tagged PDHA1 as substrate after 30 mins by ELISA
[10] = target: T2, [Pyruvate dehydrogenase (acetyl-transferring)] kinase isozyme 4, mitochondrial (Homo sapiens, UniProt Q16654); assay: Inhibition of PDK4 (unknown origin) at 10 uM using full length His6-tagged PDHA1 as substrate after 30 mins by ELISA
Target sequence in this assay (Q16654 whole entry, looked up): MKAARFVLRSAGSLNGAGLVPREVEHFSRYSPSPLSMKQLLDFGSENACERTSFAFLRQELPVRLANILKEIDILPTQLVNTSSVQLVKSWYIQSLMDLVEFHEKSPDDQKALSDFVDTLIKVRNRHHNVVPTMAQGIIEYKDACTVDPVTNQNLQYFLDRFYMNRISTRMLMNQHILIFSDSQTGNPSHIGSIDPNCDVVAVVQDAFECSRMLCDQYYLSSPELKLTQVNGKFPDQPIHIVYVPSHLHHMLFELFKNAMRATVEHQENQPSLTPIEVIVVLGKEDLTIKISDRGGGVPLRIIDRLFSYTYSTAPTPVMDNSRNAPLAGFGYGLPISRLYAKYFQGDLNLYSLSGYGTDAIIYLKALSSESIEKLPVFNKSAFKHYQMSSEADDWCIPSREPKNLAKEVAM

A549 [11] = assay: cells; settings: Homo sapiens, A549, 72 h
Description: Antiproliferative activity against human A549 cells after 72 hrs by CCK8 assay

[12] = target: T1, [Pyruvate dehydrogenase (acetyl-transferring)] kinase isozyme 1, mitochondrial; assay: Inhibition of PDK1 in human A549 cells assessed as increase in reactive oxygen species after 24 hrs by dihydroethidium staining based FACS analysis; format: cell-based
Mus musculus = assay: Toxicity in BALB/c nude mouse assessed as body weight loss at 40 to 80 mg/kg, ip for 21 days; format: organism-based; settings: in vivo, 504 h
[13] = Antiproliferative activity against human Kelly cells after 72 hrs by CCK8 assay
[14] = target: [Pyruvate dehydrogenase (acetyl-transferring)] kinase isozyme 3, mitochondrial (Homo sapiens, UniProt Q15120); assay: Inhibition of PDK3 (unknown origin) using full length His6-tagged PDHA1 as substrate after 30 mins by ELISA
[Pyruvate dehydrogenase (acetyl-transferring)] kinase isozyme 3, mitochondrial, sequence (Q15120 whole entry): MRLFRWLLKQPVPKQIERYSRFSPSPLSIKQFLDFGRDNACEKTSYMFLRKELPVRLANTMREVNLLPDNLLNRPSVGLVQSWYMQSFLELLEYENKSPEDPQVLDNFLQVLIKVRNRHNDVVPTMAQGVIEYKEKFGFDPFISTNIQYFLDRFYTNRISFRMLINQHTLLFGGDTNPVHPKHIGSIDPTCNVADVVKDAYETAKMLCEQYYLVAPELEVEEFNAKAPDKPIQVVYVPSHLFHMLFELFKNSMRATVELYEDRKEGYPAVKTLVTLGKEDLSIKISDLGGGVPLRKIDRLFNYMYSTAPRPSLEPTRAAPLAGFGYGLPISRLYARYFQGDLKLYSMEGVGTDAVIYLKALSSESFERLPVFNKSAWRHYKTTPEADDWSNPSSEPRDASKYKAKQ

A549 [15] = assay: Antitumor activity against human A549 cells xenografted in BALB/c nude mouse assessed as tumor growth inhibition at 80 mg/kg, ip for 21 days measured on day 21 post dose relative to control; format: functional; settings: 504 h, read-out: TGI
[16] = target: T1, [Pyruvate dehydrogenase (acetyl-transferring)] kinase isozyme 1, mitochondrial; assay: Inhibition of PDK1 in human A549 cells assessed as reduction in phosphorylation of PDHE1 at S232 residue after 24 hrs by chemiluminescence/femtochemiluminescence method; format: cell-based
[17] = target: T1, [Pyruvate dehydrogenase (acetyl-transferring)] kinase isozyme 1, mitochondrial; assay: Inhibition of PDK1 in human A549 cells assessed as reduction in phosphorylation of PDHE1 at S293 residue after 24 hrs by chemiluminescence/femtochemiluminescence method; format: cell-based
[18] = target: T1, [Pyruvate dehydrogenase (acetyl-transferring)] kinase isozyme 1, mitochondrial; assay: Inhibition of full length His6-tagged PDK1 (unknown origin) expressed in Escherichia coli using full length His6-tagged PDHA1 as substrate in presence of GSH after 30 mins by ELISA
[19] = target: T1, [Pyruvate dehydrogenase (acetyl-transferring)] kinase isozyme 1, mitochondrial; assay: Inhibition of PDK1 in human A549 cells assessed as reduction in extracellular acidification rate after 24 hrs by fluorescent biosensor based assay; format: cell-based
[20] = target: T1, [Pyruvate dehydrogenase (acetyl-transferring)] kinase isozyme 1, mitochondrial; assay: Inhibition of full length His6-tagged PDK1 (unknown origin) expressed in Escherichia coli up to 10 uM using full length His6-tagged PDHA1 as substrate after 30 mins by ELISA
[21] = target: T2, [Pyruvate dehydrogenase (acetyl-transferring)] kinase isozyme 4, mitochondrial; assay: Inhibition of PDK4 (unknown origin) using full length His6-tagged PDHA1 as substrate after 30 mins by ELISA
Target sequence in this assay (Q16654 whole entry): as the sequence (Q16654 whole entry, looked up) above

[22] = target: T1, [Pyruvate dehydrogenase (acetyl-transferring)] kinase isozyme 1, mitochondrial; assay: Ratio of Kinact to Ki for full length His6-tagged PDK1 (unknown origin) expressed in Escherichia coli
[23] = target: T1, [Pyruvate dehydrogenase (acetyl-transferring)] kinase isozyme 1, mitochondrial; assay: Inhibition of full length His6-tagged PDK1 (unknown origin) expressed in Escherichia coli assessed as inactivation rate using full length His6-tagged PDHA1 as substrate up to 45 mins by ELISA

T1 sequence (Q15118 whole entry): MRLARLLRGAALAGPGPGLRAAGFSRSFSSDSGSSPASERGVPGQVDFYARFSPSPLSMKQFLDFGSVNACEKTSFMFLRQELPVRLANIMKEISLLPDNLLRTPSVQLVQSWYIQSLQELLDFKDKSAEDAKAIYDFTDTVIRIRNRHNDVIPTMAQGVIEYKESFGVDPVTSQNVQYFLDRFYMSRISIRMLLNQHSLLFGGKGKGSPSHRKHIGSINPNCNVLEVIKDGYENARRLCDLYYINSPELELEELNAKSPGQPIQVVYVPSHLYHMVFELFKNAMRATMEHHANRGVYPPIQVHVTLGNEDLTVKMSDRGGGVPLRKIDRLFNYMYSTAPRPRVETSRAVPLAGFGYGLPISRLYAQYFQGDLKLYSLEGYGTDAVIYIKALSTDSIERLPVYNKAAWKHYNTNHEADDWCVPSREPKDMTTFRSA

CCOC(=O)C1CCc2nc(SSc3nc4c(s3)CC(C(=O)OCC)CC4)sc2C1 (configuration not stated) gave an IC50 [1] of 0.109 µM.

For OCC1CN(C(=S)SSC(=S)N2CCOC(CO)C2)CCO1 (configuration not stated), the inhibition [2] was “Active”, the inhibition [3] was “inactive” and the inhibition [4] was “inactive”. For the same molecule, the IC50 [1] was 0.702 µM and the inhibition [5] was “Active”.

Work on S=C(SSC(=S)N1CCOCC1)N1CCOCC1 yielded an IC50 [6] greater than 10 µM, an IC50 (L02) greater than 10 µM and an IC50 [1] of 0.049 µM. The Ki [1] was 0.462 µM, the Activity (A549 [7]) was “Active” and the inhibition in vivo at 40 mg/kg (A549 [8]) was 27.7%. For the same molecule, the Ki [9] was 0.176 µM, the inhibition [10] was “inactive” and the IC50 (A549 [11]) was 0.48 µM. For the same molecule, the inhibition [12] was “Dose-dependent effect”, the Activity (Mus musculus) was “Non-Toxic” and the IC50 [13] was 0.289 µM. For the same molecule, the Ki [14] was 2.85 µM, the inhibition in vivo at 80 mg/kg (A549 [15]) was 50.4% and the inhibition [16] was “Dose-dependent effect”. The inhibition [17] was “Dose-dependent effect”, the inhibition [18] was “inactive” and the inhibition [19] was “Dose-dependent effect”.

CCCCOCC1CN(C(=S)SSC(=S)N2CCCOC(COCCCC)C2)CCCO1 (configuration not stated) gave an IC50 [1] of 0.588 µM.

In the case of S=C(SSC(=S)N1CCO[C@H]2CCCC[C@@H]21)N1CCO[C@H]2CCCC[C@@H]21, the inhibition [2] is reported as “Active” and the IC50 [1] is reported as 0.289 µM.

With Sc1nc2ccccc2s1 the inhibition [20] was “inactive”.

With c1ccc2sc(SSc3nc4ccccc4s3)nc2c1 [BENZOTHIAZYL DISULFIDE] the IC50 [1] was 0.379 µM.

O=C(O)C(Cl)Cl [DICHLOROACETIC ACID] showed an IC50 [6] of 13800 µM, an IC50 (L02) greater than 15000 µM and an IC50 [21] of 727 µM. For the same molecule, the IC50 [9] was 504 µM, the IC50 [13] was 11100 µM and the IC50 [14] was 5560 µM. The inhibition [18] was “Active”.

In the case of CCOCC1CN(C(=S)SSC(=S)N2CCCOC(COCC)C2)CCCO1 (configuration not stated), the IC50 [1] is reported as 0.622 µM.

With S=C(SSC(=S)N1CCOC(COc2ccccc2)C1)N1CCOC(COc2ccccc2)C1 (configuration not stated) the inhibition [2] was “Active” and the IC50 [1] was 0.247 µM.

In the case of CC1CCc2nc(SSc3nc4c(s3)CC(C)CC4)sc2C1 (configuration not stated), the IC50 [1] is reported as 0.119 µM.

For CCOC(=O)C1CCc2nc(S)sc2C1 (configuration not stated), the inhibition [20] was “inactive”.

In the case of OC[C@@H]1COCCN1C(=S)SSC(=S)N1CCOC[C@H]1CO, the Ratio [22] is reported as 0.54 ×10³ /M/s, the IC50 [1] is reported as 2.44 µM and the Ki [1] is reported as 4.03 µM. It also gave a Kinact [23] of 3.24 ×10⁻⁴ /s.

In the case of O=[N+]([O-])c1ccc2nc(SSc3nc4ccc([N+](=O)[O-])cc4s3)sc2c1, the IC50 [1] is reported as 0.161 µM.

For c1csc(SSc2nccs2)n1, the Ratio [22] was 1.53 ×10³ /M/s, the IC50 [1] was 0.326 µM and the Ki [1] was 3.73 µM. It also gave a Kinact [23] of 56.5 ×10⁻⁴ /s.

OCC1CN(C(=S)SSC(=S)N2CCCOC(CO)C2)CCCO1 (configuration not stated) gave an IC50 [1] of 2.85 µM.

c1cnc2sc(SSc3nc4cccnc4s3)nc2c1 gave an IC50 [1] of 0.476 µM.

In the case of C[C@@H]1CN(C(=S)SSC(=S)N2C[C@@H](C)O[C@@H](C)C2)C[C@H](C)O1, the inhibition [2] is reported as “Active”, the inhibition [3] is reported as “Active” and the inhibition [4] is reported as “Active”. For the same molecule, the IC50 [1] was 0.032 µM and the inhibition [5] was “Active”.

Molecule CCCCCCCCCCOCC1CN(C(=S)SSC(=S)N2CCCOC(COCCCCCCCCCC)C2)CCCO1 (configuration not stated) has an IC50 [1] greater than 10 µM.

For CCOCC1CN(C(=S)SSC(=S)N2CCOC(COCC)C2)CCO1 (configuration not stated), the IC50 [1] was 0.101 µM.

CN(C)C(=O)OCC1CN(C(=S)SSC(=S)N2CCCOC(COC(=O)N(C)C)C2)CCCO1 (configuration not stated) gave an IC50 [1] of 1.46 µM.

In the case of COCC1CN(C(=S)SSC(=S)N2CCOC(COC)C2)CCO1 (configuration not stated), the inhibition [2] is reported as “Active”, the inhibition [3] is reported as “Active” and the inhibition [4] is reported as “Active”. The IC50 [1] was 0.09 µM and the inhibition [5] was “Active”.

For COC[C@H]1COCCN1C(=S)SSC(=S)N1CCOC[C@@H]1COC, the IC50 [1] was 0.03 µM and the Ki [1] was 0.12 µM.
